Assay results reported in paper PMC9643456, “Matching amino acids membrane preference profile to improve activity of antimicrobial peptides” (Communications Biology, 2022).
≈ marks a conversion by molar mass, not a printed value. Square brackets hold non-standard residues; d marks the D form. Ends that are not written are not given here. Peptide text beside a SMILES is read from it.

What was measured:
[1] = Maximum soluble concentration / turbidity; assay type: physicochemical
Protocol: Supplementary Methods Bacteria preparation, Antimicrobial peptides preparation, Minimal-inhibitory-concentration measurements, Hemolysis-activity measurements, Tryptophan fluorescence measurements, Isothermal titration calorimetry measurements, Bacteria membrane ion permeation measurements, Outer-inner membrane permeation, Field-emission scanning electron microscopy and Antimicrobial kinetics were performed as described in Materials and Methods. Liposome (LUV) preparation. Bacterial-membrane-mimic DMPC/DMPG unilamellar vesicles (LUV) and mammalian- membrane-mimic PC/cholesterol vesicles with 100-nm diameters were prepared by extrusion. LiposoFast Liposome Factory Basic unit with stabilizer (Avestin, Ottawa, Canada) was used to extrude liposomes 50 times through a polycarbonate membrane filter (pore diameter, 100 nm; filter diameter, 0.75 inches) (Avestin). […] rac-(1-glycerol)) (sodium salt) (DMPG) (Avanti, Alabama, USA); 1,2-Dimyristoyl-sn-glycero-3-phosphocholine (DMPC) (Avanti); and cholesterol (Sigma, Darmstadt, Germany) were used. For circular dichroism, isothermal titration calorimetry, tryptophan fluorescence, and dynamic light scattering experiments, liposomes were reconstructed and resuspendedwith phosphate-buffered saline (PBS; Welgene Inc, Gyeongsangbuk-do, Korea). For calcein-permeation tests, liposomes were reconstructed with calcein solutions (80 mM, 40 mM, 30 mM, 20 mM, and 10 mM) (Sigma, Darmstadt, Germany), purified with Sephadex-G50 columns (Pharmacia biotech, Stockholm, Sweden), and resuspended with PBS. Maximum-soluble -concentration measurements. […] turbidity with PBS. The lowest concentration of peptide without visible turbidity was determined to be the maximu m soluble concentration. Each experiment was performed at least twice. Circular dichroism (CD) spectrum. DMPC/PG -liposome, PC/cholesterol -liposome, and peptide stock solutions were diluted in PBS. For circular dichroism, PBS with neither liposome nor peptides was also prepared. Liposomes and peptides were mixed to […] Samples were transferred into type J/1 cuvettes (Jasco, Tokyo, Japan). Cuvettes were placed into the J -815 circular -dichroism spectrometer (Jasco, Tokyo, Japan). Measurement parameters were as follows: wavelength, 190 -260 nm; data pitch, 0.2 nm; bandwidth, 1.00 nm; […] Each experiment was performed in triplicate. Data below 197 nm was not analyzed because o f experimental difficulties in obtaining those spectra. Each experiment was performed at least twice. Artificial membrane calcein permeation measurements. Calcein fluorescence was used to measure peptide -induced liposome permeation. Calcein solutions (10 mM, 20 mM, or 60 mM) containing PC/PG liposomes and peptides were diluted in PBS ( ×1, ×2, ×3, ×8). […] Liposome solutions (180 μl) were transferred to wells of black, clear -bottomed 96 -well plates (Costar, New York, USA). Peptide […] Liposome-containing plates and peptide -containing plates were inserted into a Flexstation 3 Multi -Mode Microplate Reader (Molecular Devices, California, USA). Peptide solutions (20 μl) were transferred and mixed with liposome solution automatical ly after 30 sec. […] Measurement parameters were as follows: excitation, 490 nm; emission, 520 nm; temperature, 37 °C. […] was transferred and mixed with the liposome -peptide solu tions automatically after 300 sec to acquire fluorescence at maximum leakage. […] Fluorescence measured between 0 -300 sec after addition of 0 μg/ml peptide was considered the baseline. Each experiment was performed at least twice. Dynamic light scattering (DLS) measurements. Dynamic light scattering was used to measure peptide -induced liposome volume changes. PC/PG -liposome stock solutions and peptides were resuspended in PBS. Liposomes and peptides were mixed to […]

A. baumannii strains = test: microbe, parasite or virus in culture; conditions: for Number of A. baumannii strains at MIC (μM) 0.63 / Number of A. baumannii strains at MIC (μM) 1.25 / Number of A. baumannii strains at MIC (μM) 2.5 / Number of A. baumannii strains at MIC (μM) 5 / Number of A. baumannii strains at MIC (μM) 10 / Number of A. baumannii strains at MIC (μM) ≤0.31 / Number of A. baumannii strains at MIC (μM) ≥20: of 30 strains
Protocol: Twenty-six A. baumannii strains were clinically isolated and gifted to us by the Kyungpook National University School of Medicine. One A. baumannii strain (ATCC 17978) was purchased and gifted to us by Kyungpook National University School of Medicine. One A. baumannii strain and 10 K. pneumoniae strains (NCCP) were purchased from the National Culture Collection for Pathogens.
To assess antimicrobial activity, the MIC50 and MIC90 were measured using broth microdilution following CLSI guidelines. […] Each experiment was performed in triplicate. Meropenem (Sigma, Darmstadt, Germany) and colistin were used as control antibiotics. Cation-adjusted Mueller–Hinton broth (CAMHB) (Becton, Dickinson and Company, Franklin Lakes, USA) with supplied calcium (50 mg/L) and magnesium (10 mg/L) was used for the CLSI-test condition. Bacteria in midlog phase and peptides were separately diluted in CAMHB. The bacteria and peptide solutions were then mixed in 96-well polyethylene plates (SPL, Gyeonggi-do, Korea) and incubated for 18 h at 37 °C. The final concentration for bacteria was 5 × 10^5 CFU/ml. […] The MIC was defined to be the lowest concentration of peptide without visible turbidity by comparing with control antibiotics with the unaided eye. […] Each experiment was performed in triplicate. MICs in albumin and acetic acid solutions were measured using the same protocol but with 0.2% bovine serum albumin (Bovogen, Keilor, Australia), 0.01% acetic acid (Merck, New Jersey, USA), and CAMHB with both calcium and magnesium. In addition, MICs used in the antibiotic resistance acquisition test, the outer–inner membrane permeation test, and the transmembrane potential test and for FE-SEM were individually determined. The final bacterial concentrations used were as follows: for resistance acquisition, optical density (OD) 0.01; for outer–inner membrane permeability assays (LB), OD 0.1; for the transmembrane potential test, 1 × 10^8 CFU/ml (OD 0.171); […]. Inhibitory activity unidentifiable by direct observation was determined by counting the CFUs. Each experiment was performed at least twice.

RLWWRWIVR-NH2 [HLWCopW29-4]
Maximum soluble concentration in PBS ([1]; lyophilized peptide reconstructed in PBS at 200-6.25 μM, visible turbidity checked every 12 h for 5 days, at least twice): > 200 µM

CC[C@@H](C)[C@@H](NC(=O)[C@@H](Cc1c[nH]c2ccccc12)NC(=O)[C@@H](CCCNC(=N)N)NC(=O)[C@@H](CCCNC(=N)N)NC(=O)[C@H](N)CCCNC(=N)N)C(=O)N[C@H](Cc1c[nH]c2ccccc12)C(=O)N[C@@H](C(=O)N[C@@H](C(=O)N[C@H](Cc1c[nH]c2ccccc12)C(=O)N[C@H](CCCCN)C(N)=O)[C@H](C)CC)C(C)C [WCopW43] (H-[dR][dR][dR][dW][dI][dW][dV][dI][dW][dK]-NH2)
Turbidity in PBS ([1]; 10 mg/ml peptide in PBS): turbid
Number of A. baumannii strains at MIC (μM) 0.63 (A. baumannii strains): 15
Number of A. baumannii strains at MIC (μM) 1.25 (A. baumannii strains): 14
Number of A. baumannii strains at MIC (μM) 2.5 (A. baumannii strains): 0
Number of A. baumannii strains at MIC (μM) 5 (A. baumannii strains): 0
Number of A. baumannii strains at MIC (μM) 10 (A. baumannii strains): 0
Number of A. baumannii strains at MIC (μM) ≤0.31 (A. baumannii strains): 1
Number of A. baumannii strains at MIC (μM) ≥20 (A. baumannii strains): 0
MIC50 (A. baumannii strains; strains, 18 h): 0.63 µM (≈ 0.944 µg/mL)
MIC, A. baumannii ATCC 17978 (A. baumannii strains; strains, 18 h): 1.25 µM (≈ 1.87 µg/mL)
MIC, A. baumannii Isolated strain 1 (A. baumannii strains; strains, 18 h): 1.25 µM (≈ 1.87 µg/mL)
MIC, A. baumannii Isolated strain 3 (A. baumannii strains; strains, 18 h): 1.25 µM (≈ 1.87 µg/mL)
MIC, A. baumannii Isolated strain 6 (A. baumannii strains; strains, 18 h): 0.63 µM (≈ 0.944 µg/mL)
MIC, A. baumannii Isolated strain 10 (A. baumannii strains; strains, 18 h): 0.63 µM (≈ 0.944 µg/mL)
MIC, A. baumannii Isolated strain 14 (A. baumannii strains; strains, 18 h): 1.25 µM (≈ 1.87 µg/mL)
MIC, A. baumannii Isolated strain 15 (A. baumannii strains; strains, 18 h): 0.63 µM (≈ 0.944 µg/mL)
MIC, A. baumannii Isolated strain 16 (A. baumannii strains; strains, 18 h): 1.25 µM (≈ 1.87 µg/mL)
MIC, A. baumannii Isolated strain 19 (A. baumannii strains; strains, 18 h): 0.63 µM (≈ 0.944 µg/mL)
MIC, A. baumannii Isolated strain 22 (A. baumannii strains; strains, 18 h): 0.63 µM (≈ 0.944 µg/mL)
MIC, A. baumannii Isolated strain 39 (A. baumannii strains; strains, 18 h): 0.63 µM (≈ 0.944 µg/mL)
MIC, A. baumannii Isolated strain 44 (A. baumannii strains; strains, 18 h): 1.25 µM (≈ 1.87 µg/mL)
MIC, A. baumannii Isolated strain 66 (A. baumannii strains; strains, 18 h): 1.25 µM (≈ 1.87 µg/mL)
MIC, A. baumannii Isolated strain 68 (A. baumannii strains; strains, 18 h): 1.25 µM (≈ 1.87 µg/mL)
MIC, A. baumannii Isolated strain 69 (A. baumannii strains; strains, 18 h): 0.63 µM (≈ 0.944 µg/mL)
MIC, A. baumannii Isolated strain 71 (A. baumannii strains; strains, 18 h): 0.63 µM (≈ 0.944 µg/mL)
MIC, A. baumannii Isolated strain 76 (A. baumannii strains; strains, 18 h): < 0.31 µM
MIC, A. baumannii Isolated strain 80 (A. baumannii strains; strains, 18 h): 0.63 µM (≈ 0.944 µg/mL)
MIC, A. baumannii Isolated strain 82 (A. baumannii strains; strains, 18 h): 0.63 µM (≈ 0.944 µg/mL)
MIC, A. baumannii Isolated strain 86 (A. baumannii strains; strains, 18 h): 0.63 µM (≈ 0.944 µg/mL)
MIC, A. baumannii Isolated strain 89 (A. baumannii strains; strains, 18 h): 1.25 µM (≈ 1.87 µg/mL)
MIC, A. baumannii Isolated strain 102 (A. baumannii strains; strains, 18 h): 0.63 µM (≈ 0.944 µg/mL)
MIC, A. baumannii Isolated strain 127 (A. baumannii strains; strains, 18 h): 1.25 µM (≈ 1.87 µg/mL)
MIC, A. baumannii Isolated strain 141 (A. baumannii strains; strains, 18 h): 0.63 µM (≈ 0.944 µg/mL)
MIC, A. baumannii Isolated strain 144 (A. baumannii strains; strains, 18 h): 1.25 µM (≈ 1.87 µg/mL)
MIC, A. baumannii Isolated strain 147 (A. baumannii strains; strains, 18 h): 1.25 µM (≈ 1.87 µg/mL)
MIC, A. baumannii Isolated strain 152 (A. baumannii strains; strains, 18 h): 0.63 µM (≈ 0.944 µg/mL)
MIC, A. baumannii KCCM 40203 (A. baumannii strains; strains, 18 h): 0.63 µM (≈ 0.944 µg/mL)
MIC, A. baumannii NCCP 14654 (A. baumannii strains; strains, 18 h): 1.25 µM (≈ 1.87 µg/mL)

Colistin
MIC50 (A. baumannii strains; 30 A. baumannii strains, including 27 carbapenem-resistant, CLSI broth microdilution): 0.63 µM
MIC, A. baumannii ATCC 17978 (A. baumannii strains; CLSI): 0.63 µM
MIC, A. baumannii ATCC BBA 1605 (A. baumannii strains; CLSI): 0.63 µM
MIC, A. baumannii Isolated strain 1 (A. baumannii strains; CLSI): 0.63 µM
MIC, A. baumannii Isolated strain 3 (A. baumannii strains; CLSI): > 20 µM
MIC, A. baumannii Isolated strain 6 (A. baumannii strains; CLSI): 2.5 µM
MIC, A. baumannii Isolated strain 10 (A. baumannii strains; CLSI): 2.5 µM
MIC, A. baumannii Isolated strain 14 (A. baumannii strains; CLSI): 1.25 µM
MIC, A. baumannii Isolated strain 15 (A. baumannii strains; CLSI): 0.63 µM
MIC, A. baumannii Isolated strain 16 (A. baumannii strains; CLSI): < 0.31 µM
MIC, A. baumannii Isolated strain 19 (A. baumannii strains; CLSI): < 0.31 µM
MIC, A. baumannii Isolated strain 22 (A. baumannii strains; CLSI): 1.25 µM
MIC, A. baumannii Isolated strain 39 (A. baumannii strains; CLSI): < 0.31 µM
MIC, A. baumannii Isolated strain 44 (A. baumannii strains; CLSI): 1.25 µM
MIC, A. baumannii Isolated strain 66 (A. baumannii strains; CLSI): 1.25 µM
MIC, A. baumannii Isolated strain 68 (A. baumannii strains; CLSI): 0.63 µM
MIC, A. baumannii Isolated strain 69 (A. baumannii strains; CLSI): 1.25 µM
MIC, A. baumannii Isolated strain 71 (A. baumannii strains; CLSI): 1.25 µM
MIC, A. baumannii Isolated strain 76 (A. baumannii strains; CLSI): < 0.31 µM
MIC, A. baumannii Isolated strain 80 (A. baumannii strains; CLSI): 0.63 µM
MIC, A. baumannii Isolated strain 82 (A. baumannii strains; CLSI): 0.63 µM
MIC, A. baumannii Isolated strain 86 (A. baumannii strains; CLSI): 0.63 µM
MIC, A. baumannii Isolated strain 89 (A. baumannii strains; CLSI): 2.5 µM
MIC, A. baumannii Isolated strain 102 (A. baumannii strains; CLSI): 0.63 µM
MIC, A. baumannii Isolated strain 127 (A. baumannii strains; CLSI): 0.63 µM
MIC, A. baumannii Isolated strain 141 (A. baumannii strains; CLSI): < 0.31 µM
MIC, A. baumannii Isolated strain 144 (A. baumannii strains; CLSI): 0.63 µM
MIC, A. baumannii Isolated strain 147 (A. baumannii strains; CLSI): 5 µM
MIC, A. baumannii Isolated strain 152 (A. baumannii strains; CLSI): 1.25 µM
MIC, A. baumannii KCCM 40203 (A. baumannii strains; CLSI): 0.63 µM
MIC, A. baumannii NCCP 14654 (A. baumannii strains; CLSI): 1.25 µM
Number of A. baumannii strains at MIC (μM) 0.63 (A. baumannii strains): 12
Number of A. baumannii strains at MIC (μM) 1.25 (A. baumannii strains): 8
Number of A. baumannii strains at MIC (μM) 2.5 (A. baumannii strains): 3
Number of A. baumannii strains at MIC (μM) 5 (A. baumannii strains): 1
Number of A. baumannii strains at MIC (μM) 10 (A. baumannii strains): 0
Number of A. baumannii strains at MIC (μM) ≤0.31 (A. baumannii strains): 5
Number of A. baumannii strains at MIC (μM) ≥20 (A. baumannii strains): 1
